Measured values as given in the supplement of paper PMC10307832.

Tests used:
Test in all cases: relative viability (nuclei count vs DMSO), 5 days (fraction); higher = more cells survive
[1] = compound: CC1=CC(=C(N1C2=CC=C(C=C2)Cl)C)C(=O)CN3CCCCC3 [IU1-47] + Nc1ncn([C@H]2C[C@H](O)[C@@H](CO)O2)c(=O)n1 [Decitabine] (partner 2 µM)
In short: (§1)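 Lung cancer cell lines in 1536-well plates got either a single drug or a fixed anchor-drug dose together with five library-drug doses (not always all listed) in √10 steps, by pin tool, on the day after seeding. Nuclei were counted after 5 days, and relative viability is the treated-to-vehicle ratio of nuclei counts. Values are medians of duplicate plates.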

[2] = compound: CC1=CC(=C(N1C2=CC=C(C=C2)Cl)C)C(=O)CN3CCCCC3 [IU1-47] + CC(C)C[C@H](NC(=O)[C@H](Cc1ccccc1)NC(=O)c1cnccn1)B(O)O [Bortezomib] (partner 0.002 µM)
In short: as §1

[3] = compound: Cc1nc(C(=O)NCC(=O)O)c(O)c2ccc(Oc3ccccc3)cc12 [FG-4592] + CCNC(=O)c1noc(-c2cc(C(C)C)c(O)cc2O)c1-c1ccc(CN2CCOCC2)cc1 [Luminespib] (partner 0.01 µM)
In short: as §1

[4] = compound: Cc1nc(C(=O)NCC(=O)O)c(O)c2ccc(Oc3ccccc3)cc12 [FG-4592] + Cc1nc(Nc2ncc(C(=O)Nc3c(C)cccc3Cl)s2)cc(N2CCN(CCO)CC2)n1 [Dasatinib] (partner 0.075 µM)
In short: as §1

Cell Line: HCC-15
- relative viability ([1]; first compound 0.08 µM): 0.619
- relative viability ([1]; first compound 0.253 µM): 0.586
- relative viability ([1]; first compound 0.8 µM): 0.63
- relative viability ([1]; first compound 2.53 µM): 0.552
- relative viability ([1]; first compound 8 µM): 0.461
- relative viability ([2]; first compound 0.08 µM): 1.11
- relative viability ([2]; first compound 0.253 µM): 1.05
- relative viability ([2]; first compound 0.8 µM): 1.05
- relative viability ([2]; first compound 2.53 µM): 0.928
- relative viability ([2]; first compound 8 µM): 0.856
- relative viability ([3]; first compound 0.08 µM): 0.403
- relative viability ([3]; first compound 0.253 µM): 0.371
- relative viability ([3]; first compound 0.8 µM): 0.26
- relative viability ([3]; first compound 2.53 µM): 0.302
- relative viability ([3]; first compound 8 µM): 0.253
- relative viability ([4]; first compound 0.08 µM): 0.65
- relative viability ([4]; first compound 0.253 µM): 0.601
- relative viability ([4]; first compound 0.8 µM): 0.536
- relative viability ([4]; first compound 2.53 µM): 0.554
- relative viability ([4]; first compound 8 µM): 0.681

Cell Line: HCC-44
- relative viability ([1]; first compound 0.08 µM): 0.982
- relative viability ([1]; first compound 0.253 µM): 0.938
- relative viability ([1]; first compound 0.8 µM): 0.966
- relative viability ([1]; first compound 2.53 µM): 0.917
- relative viability ([1]; first compound 8 µM): 1.03
- relative viability ([2]; first compound 0.08 µM): 0.891
- relative viability ([2]; first compound 0.253 µM): 0.851
- relative viability ([2]; first compound 0.8 µM): 0.89
- relative viability ([2]; first compound 2.53 µM): 0.873
- relative viability ([2]; first compound 8 µM): 0.898
- relative viability ([3]; first compound 0.08 µM): 1.05
- relative viability ([3]; first compound 0.253 µM): 1.01
- relative viability ([3]; first compound 2.53 µM): 0.934
- relative viability ([3]; first compound 8 µM): 1.05

Cell Line: HCC-78
- relative viability ([1]; first compound 0.08 µM): 0.643
- relative viability ([1]; first compound 0.253 µM): 0.682
- relative viability ([1]; first compound 0.8 µM): 0.71
- relative viability ([1]; first compound 2.53 µM): 0.668
- relative viability ([1]; first compound 8 µM): 0.723
- relative viability ([2]; first compound 0.08 µM): 0.712
- relative viability ([2]; first compound 0.253 µM): 0.562
- relative viability ([2]; first compound 0.8 µM): 0.49
- relative viability ([2]; first compound 2.53 µM): 0.381
- relative viability ([2]; first compound 8 µM): 0.596
- relative viability ([4]; first compound 0.08 µM): 0.472
- relative viability ([4]; first compound 0.253 µM): 0.333
- relative viability ([4]; first compound 0.8 µM): 0.379
- relative viability ([4]; first compound 2.53 µM): 0.386
- relative viability ([4]; first compound 8 µM): 0.32

Cell Line: HCC-366
- relative viability ([1]; first compound 0.08 µM): 0.375
- relative viability ([1]; first compound 0.253 µM): 0.382
- relative viability ([1]; first compound 0.8 µM): 0.349
- relative viability ([1]; first compound 2.53 µM): 0.389
- relative viability ([1]; first compound 8 µM): 0.272
- relative viability ([2]; first compound 0.08 µM): 1.13
- relative viability ([2]; first compound 0.253 µM): 1.02
- relative viability ([2]; first compound 0.8 µM): 1.25
- relative viability ([2]; first compound 8 µM): 0.866
- relative viability ([4]; first compound 0.08 µM): 0.624
- relative viability ([4]; first compound 0.253 µM): 0.607
- relative viability ([4]; first compound 0.8 µM): 0.339
- relative viability ([4]; first compound 2.53 µM): 0.573
- relative viability ([4]; first compound 8 µM): 0.414

Cell Line: IA-LM
- relative viability ([2]; first compound 0.08 µM): 0.917
- relative viability ([2]; first compound 0.253 µM): 0.899
- relative viability ([2]; first compound 0.8 µM): 0.904
- relative viability ([2]; first compound 2.53 µM): 0.782
- relative viability ([2]; first compound 8 µM): 0.824

Cell Line: LK-2
- relative viability ([1]; first compound 0.08 µM): 0.354
- relative viability ([1]; first compound 0.253 µM): 0.35
- relative viability ([1]; first compound 0.8 µM): 0.34
- relative viability ([1]; first compound 2.53 µM): 0.372
- relative viability ([1]; first compound 8 µM): 0.179
- relative viability ([3]; first compound 0.08 µM): 0.227
- relative viability ([3]; first compound 0.253 µM): 0.168
- relative viability ([3]; first compound 2.53 µM): 0.146
- relative viability ([3]; first compound 8 µM): 0.177
- relative viability ([4]; first compound 0.08 µM): 0.281
- relative viability ([4]; first compound 0.253 µM): 0.304
- relative viability ([4]; first compound 2.53 µM): 0.262
- relative viability ([4]; first compound 8 µM): 0.277

Cell Line: NCI-H358
- relative viability ([1]; first compound 0.08 µM): 0.242
- relative viability ([1]; first compound 0.253 µM): 0.204
- relative viability ([1]; first compound 0.8 µM): 0.2
- relative viability ([1]; first compound 2.53 µM): 0.201
- relative viability ([1]; first compound 8 µM): 0.21
- relative viability ([3]; first compound 0.08 µM): 0.311
- relative viability ([3]; first compound 0.253 µM): 0.36
- relative viability ([3]; first compound 0.8 µM): 0.426
- relative viability ([3]; first compound 2.53 µM): 0.395
- relative viability ([3]; first compound 8 µM): 0.238
- relative viability ([4]; first compound 0.08 µM): 0.16
- relative viability ([4]; first compound 0.253 µM): 0.19
- relative viability ([4]; first compound 0.8 µM): 0.162
- relative viability ([4]; first compound 2.53 µM): 0.145
- relative viability ([4]; first compound 8 µM): 0.156

Cell Line: NCI-H522
- relative viability ([1]; first compound 0.08 µM): 0.67
- relative viability ([1]; first compound 0.253 µM): 0.64
- relative viability ([1]; first compound 0.8 µM): 0.739
- relative viability ([1]; first compound 2.53 µM): 0.763
- relative viability ([1]; first compound 8 µM): 0.634
- relative viability ([3]; first compound 0.08 µM): 0.895
- relative viability ([3]; first compound 0.253 µM): 1.22
- relative viability ([3]; first compound 0.8 µM): 1.18
- relative viability ([3]; first compound 2.53 µM): 1.01
- relative viability ([3]; first compound 8 µM): 1.08
- relative viability ([4]; first compound 0.08 µM): 0.887
- relative viability ([4]; first compound 0.253 µM): 0.892
- relative viability ([4]; first compound 0.8 µM): 0.801
- relative viability ([4]; first compound 2.53 µM): 0.843
- relative viability ([4]; first compound 8 µM): 0.829

Cell Line: NCI-H1299
- relative viability ([2]; first compound 0.08 µM): 1.08
- relative viability ([2]; first compound 0.253 µM): 1.06
- relative viability ([2]; first compound 0.8 µM): 1.09
- relative viability ([2]; first compound 2.53 µM): 0.989
- relative viability ([2]; first compound 8 µM): 0.945

Cell Line: NCI-H1395
- relative viability ([1]; first compound 0.08 µM): 0.687
- relative viability ([1]; first compound 0.253 µM): 0.802
- relative viability ([1]; first compound 0.8 µM): 0.699
- relative viability ([1]; first compound 2.53 µM): 0.704
- relative viability ([1]; first compound 8 µM): 0.713
- relative viability ([3]; first compound 0.08 µM): 0.34
- relative viability ([3]; first compound 0.253 µM): 0.685
- relative viability ([3]; first compound 0.8 µM): 0.583
- relative viability ([3]; first compound 2.53 µM): 0.61
- relative viability ([3]; first compound 8 µM): 0.753
- relative viability ([4]; first compound 0.08 µM): 0.446
- relative viability ([4]; first compound 0.253 µM): 0.416
- relative viability ([4]; first compound 0.8 µM): 0.373
- relative viability ([4]; first compound 2.53 µM): 0.364
- relative viability ([4]; first compound 8 µM): 0.365
